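These data come from cells grown in 96-well plates and exposed to compound for 48 hours at five concentrations. TGI: concentration producing complete growth inhibition.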
What was measured:
Assay in all cases: growth of human tumour cells (NCI), 48 h
A498 renal = system: A498 renal
SN12C renal = system: SN12C renal
MDA-MB-435 = system: MDA-MB-435
SF-539 CNS = system: SF-539 CNS
SK-MEL-2 melanoma = system: SK-MEL-2 melanoma
U251 CNS = system: U251 CNS
HS 578T breast = system: HS 578T breast
BT-549 breast = system: BT-549 breast
MDA-N = system: MDA-N
SF-268 CNS = system: SF-268 CNS
DU-145 prostate = system: DU-145 prostate
NCI-H460 lung = system: NCI-H460 lung
RXF 393 renal = system: RXF 393 renal
786-0 renal = system: 786-0 renal
CCRF-CEM leukemia = system: CCRF-CEM leukemia
A549 NSCLC = system: A549 NSCLC
UACC-257 melanoma = system: UACC-257 melanoma
UACC-62 melanoma = system: UACC-62 melanoma
SK-MEL-28 melanoma = system: SK-MEL-28 melanoma
HOP-92 NSCLC = system: HOP-92 NSCLC
MALME-3M melanoma = system: MALME-3M melanoma
COLO 205 colon = system: COLO 205 colon
K-562 leukemia = system: K-562 leukemia
EKVX NSCLC = system: EKVX NSCLC
ACHN renal = system: ACHN renal
MCF7 breast = system: MCF7 breast
SK-MEL-5 melanoma = system: SK-MEL-5 melanoma
MOLT-4 leukemia = system: MOLT-4 leukemia
SR leukemia = system: SR leukemia
SK-OV-3 ovarian = system: SK-OV-3 ovarian
IGROV1 ovarian = system: IGROV1 ovarian
LOX IMVI melanoma = system: LOX IMVI melanoma
MDA-MB-231 breast = system: MDA-MB-231 breast
KM12 colon = system: KM12 colon
NCI/ADR-RES ovarian = system: NCI/ADR-RES ovarian
SW-620 colon = system: SW-620 colon
HCT-116 colon = system: HCT-116 colon
NCI-H522 lung = system: NCI-H522 lung
SNB-75 CNS = system: SNB-75 CNS
NCI-H23 lung = system: NCI-H23 lung
RPMI-8226 leukemia = system: RPMI-8226 leukemia
HCC-2998 colon = system: HCC-2998 colon
UO-31 renal = system: UO-31 renal
SF-295 CNS = system: SF-295 CNS
TK-10 renal = system: TK-10 renal
OVCAR-3 ovarian = system: OVCAR-3 ovarian
OVCAR-4 ovarian = system: OVCAR-4 ovarian
SNB-19 CNS = system: SNB-19 CNS
PC-3 prostate = system: PC-3 prostate
T-47D breast = system: T-47D breast
CAKI-1 renal = system: CAKI-1 renal
HCT-15 colon = system: HCT-15 colon
OVCAR-5 ovarian = system: OVCAR-5 ovarian
M14 melanoma = system: M14 melanoma
OVCAR-8 ovarian = system: OVCAR-8 ovarian
NCI-H226 lung = system: NCI-H226 lung
HOP-62 NSCLC = system: HOP-62 NSCLC
HT29 colon = system: HT29 colon
HL-60(TB) leukemia = system: HL-60(TB) leukemia

For `Nc1ncnc2c1ncn2[C@H]1CC[C@@H](NO)C1`, the TGI (A498 renal) was > 100 µM, the TGI (SN12C renal) was > 100 µM and the TGI (MDA-MB-435) was > 100 µM. The TGI (SF-539 CNS) was > 100 µM, the TGI (SK-MEL-2 melanoma) was > 100 µM and the TGI (U251 CNS) was > 100 µM. The TGI (HS 578T breast) was > 100 µM, the TGI (BT-549 breast) was > 100 µM and the TGI (MDA-N) was > 100 µM. The TGI (SF-268 CNS) was > 100 µM, the TGI (DU-145 prostate) was > 100 µM and the TGI (NCI-H460 lung) was > 100 µM. The TGI (RXF 393 renal) was > 100 µM, the TGI (786-0 renal) was > 100 µM and the TGI (CCRF-CEM leukemia) was > 100 µM. For the same compound, the TGI (A549 NSCLC) was > 100 µM, the TGI (UACC-257 melanoma) was > 100 µM and the TGI (UACC-62 melanoma) was > 100 µM. The TGI (SK-MEL-28 melanoma) was > 100 µM, the TGI (HOP-92 NSCLC) was > 100 µM and the TGI (MALME-3M melanoma) was > 100 µM. The TGI (COLO 205 colon) was > 100 µM, the TGI (K-562 leukemia) was > 100 µM and the TGI (EKVX NSCLC) was > 100 µM. For the same compound, the TGI (ACHN renal) was > 100 µM, the TGI (MCF7 breast) was > 100 µM and the TGI (SK-MEL-5 melanoma) was > 100 µM. The TGI (MOLT-4 leukemia) was > 100 µM, the TGI (SR leukemia) was > 100 µM and the TGI (SK-OV-3 ovarian) was > 100 µM. The TGI (IGROV1 ovarian) was > 100 µM, the TGI (LOX IMVI melanoma) was > 100 µM and the TGI (MDA-MB-231 breast) was > 100 µM. The TGI (KM12 colon) was > 100 µM, the TGI (NCI/ADR-RES ovarian) was > 100 µM and the TGI (SW-620 colon) was > 100 µM. The TGI (HCT-116 colon) was > 100 µM, the TGI (NCI-H522 lung) was > 100 µM and the TGI (SNB-75 CNS) was > 100 µM. For the same compound, the TGI (NCI-H23 lung) was > 100 µM, the TGI (RPMI-8226 leukemia) was > 100 µM and the TGI (HCC-2998 colon) was > 100 µM. For the same compound, the TGI (UO-31 renal) was > 100 µM, the TGI (SF-295 CNS) was > 100 µM and the TGI (TK-10 renal) was > 100 µM. For the same compound, the TGI (OVCAR-3 ovarian) was > 100 µM, the TGI (OVCAR-4 ovarian) was > 100 µM and the TGI (SNB-19 CNS) was > 100 µM. For the same compound, the TGI (PC-3 prostate) was > 100 µM, the TGI (T-47D breast) was > 100 µM and the TGI (CAKI-1 renal) was > 100 µM. The TGI (HCT-15 colon) was > 100 µM, the TGI (OVCAR-5 ovarian) was > 100 µM and the TGI (M14 melanoma) was > 100 µM. The TGI (OVCAR-8 ovarian) was > 100 µM, the TGI (NCI-H226 lung) was > 100 µM and the TGI (HOP-62 NSCLC) was > 100 µM.

`COC(=O)/C=C(\S/C(=N\n1cc(C(=O)OC)c(C(=O)OC)c1-c1ccc(C)cc1)c1ccc(C)cc1)C(=O)OC` gave a TGI (A498 renal) of 30 µM, a TGI (HT29 colon) of 9.67 µM and a TGI (SN12C renal) of 11.8 µM. The TGI (MDA-MB-435) was 13.5 µM, the TGI (SF-539 CNS) was 33 µM and the TGI (SK-MEL-2 melanoma) was 15 µM. For the same compound, the TGI (U251 CNS) was 14.1 µM, the TGI (HS 578T breast) was 62.8 µM and the TGI (BT-549 breast) was 21.3 µM. For the same compound, the TGI (MDA-N) was 12.7 µM, the TGI (SF-268 CNS) was 40.4 µM and the TGI (DU-145 prostate) was 31.4 µM. For the same compound, the TGI (NCI-H460 lung) was > 56.6 µM, the TGI (RXF 393 renal) was 13.9 µM and the TGI (786-0 renal) was 9.69 µM. It also gave a TGI (A549 NSCLC) of 51.8 µM, a TGI (UACC-257 melanoma) of 9.84 µM and a TGI (UACC-62 melanoma) of 25.9 µM. The TGI (SK-MEL-28 melanoma) was 12.5 µM, the TGI (HOP-92 NSCLC) was 8.31 µM and the TGI (MALME-3M melanoma) was 13.9 µM. It also gave a TGI (COLO 205 colon) of 6.61 µM, a TGI (EKVX NSCLC) of 32.8 µM and a TGI (ACHN renal) of 5.78 µM. For the same compound, the TGI (MCF7 breast) was 23.7 µM, the TGI (SK-MEL-5 melanoma) was 27.1 µM and the TGI (MOLT-4 leukemia) was > 100 µM. For the same compound, the TGI (HL-60(TB) leukemia) was 14.7 µM, the TGI (SR leukemia) was 67.3 µM and the TGI (SK-OV-3 ovarian) was > 57.3 µM. For the same compound, the TGI (IGROV1 ovarian) was 44.5 µM, the TGI (LOX IMVI melanoma) was 17 µM and the TGI (MDA-MB-231 breast) was 11.7 µM. The TGI (KM12 colon) was 41.9 µM, the TGI (NCI/ADR-RES ovarian) was 17.2 µM and the TGI (SW-620 colon) was 5.53 µM. For the same compound, the TGI (HCT-116 colon) was 4.2 µM, the TGI (NCI-H522 lung) was 3.7 µM and the TGI (SNB-75 CNS) was 31.4 µM. The TGI (NCI-H23 lung) was 11.5 µM, the TGI (RPMI-8226 leukemia) was 20.1 µM and the TGI (HCC-2998 colon) was 34 µM. The TGI (UO-31 renal) was 8.48 µM, the TGI (SF-295 CNS) was > 100 µM and the TGI (TK-10 renal) was 8.42 µM. For the same compound, the TGI (OVCAR-3 ovarian) was 12.4 µM, the TGI (OVCAR-4 ovarian) was 3.37 µM and the TGI (SNB-19 CNS) was > 61 µM. For the same compound, the TGI (PC-3 prostate) was 10.3 µM, the TGI (T-47D breast) was > 100 µM and the TGI (HCT-15 colon) was 7.34 µM. For the same compound, the TGI (OVCAR-5 ovarian) was 14.5 µM, the TGI (M14 melanoma) was 11 µM and the TGI (OVCAR-8 ovarian) was 34.9 µM. It also gave a TGI (NCI-H226 lung) of 3.5 µM and a TGI (HOP-62 NSCLC) of 41.6 µM.

`COc1ccc(NC(=S)N/N=C(\C)c2nc3ncccc3[nH]2)cc1` was tested, and the TGI (A498 renal) was 98.2 µM, the TGI (HT29 colon) was > 100 µM and the TGI (SN12C renal) was > 100 µM. For the same compound, the TGI (MDA-MB-435) was > 100 µM, the TGI (SF-539 CNS) was 13.7 µM and the TGI (SK-MEL-2 melanoma) was > 100 µM. For the same compound, the TGI (U251 CNS) was > 100 µM, the TGI (HS 578T breast) was > 100 µM and the TGI (BT-549 breast) was 42.3 µM. The TGI (MDA-N) was > 100 µM, the TGI (SF-268 CNS) was > 100 µM and the TGI (DU-145 prostate) was > 100 µM. For the same compound, the TGI (NCI-H460 lung) was 37.9 µM, the TGI (786-0 renal) was > 100 µM and the TGI (CCRF-CEM leukemia) was 24.5 µM. For the same compound, the TGI (A549 NSCLC) was > 100 µM, the TGI (UACC-257 melanoma) was > 100 µM and the TGI (UACC-62 melanoma) was 73.2 µM. For the same compound, the TGI (SK-MEL-28 melanoma) was > 100 µM, the TGI (HOP-92 NSCLC) was 37.7 µM and the TGI (MALME-3M melanoma) was > 100 µM. The TGI (COLO 205 colon) was > 100 µM, the TGI (K-562 leukemia) was > 100 µM and the TGI (EKVX NSCLC) was > 100 µM. For the same compound, the TGI (ACHN renal) was > 100 µM, the TGI (MCF7 breast) was 21.6 µM and the TGI (SK-MEL-5 melanoma) was 29.1 µM. The TGI (MOLT-4 leukemia) was 43.9 µM, the TGI (HL-60(TB) leukemia) was 65.8 µM and the TGI (SR leukemia) was > 100 µM. For the same compound, the TGI (SK-OV-3 ovarian) was > 100 µM, the TGI (IGROV1 ovarian) was 53.6 µM and the TGI (LOX IMVI melanoma) was 28.7 µM. For the same compound, the TGI (MDA-MB-231 breast) was > 100 µM, the TGI (KM12 colon) was > 100 µM and the TGI (NCI/ADR-RES ovarian) was > 100 µM. For the same compound, the TGI (SW-620 colon) was > 100 µM, the TGI (HCT-116 colon) was 24.8 µM and the TGI (NCI-H522 lung) was 37.5 µM. For the same compound, the TGI (SNB-75 CNS) was 70.6 µM, the TGI (NCI-H23 lung) was > 100 µM and the TGI (RPMI-8226 leukemia) was > 100 µM. For the same compound, the TGI (HCC-2998 colon) was > 100 µM, the TGI (UO-31 renal) was 12 µM and the TGI (SF-295 CNS) was > 100 µM. For the same compound, the TGI (TK-10 renal) was 21.1 µM, the TGI (OVCAR-3 ovarian) was 6.9 µM and the TGI (OVCAR-4 ovarian) was > 100 µM. For the same compound, the TGI (SNB-19 CNS) was > 100 µM, the TGI (PC-3 prostate) was 45.2 µM and the TGI (T-47D breast) was 92.4 µM. For the same compound, the TGI (CAKI-1 renal) was > 100 µM, the TGI (HCT-15 colon) was > 100 µM and the TGI (OVCAR-5 ovarian) was > 100 µM. For the same compound, the TGI (OVCAR-8 ovarian) was 63.3 µM, the TGI (NCI-H226 lung) was 21.7 µM and the TGI (HOP-62 NSCLC) was 59.3 µM.

Reference: PubChem BioAssay (NCI)
